Patent US20250275993A1, “GLYCOSYLATION INHIBITORS AS THERAPEUTICS FOR STROKE” (The Regents of the University of California, priority 2022, published 2025)

Assays:
HUVEC = HUVEC migration assay; assay type: cell-based, human; settings: 40 μM ManN alone
Method: HUVECs (passage 6-8) were cultured and serum-starved as described in “Western Blots”. Ten thousand cells in […] of EBM-2 medium were then added to the upper chamber of […] pore size cell culture inserts (Falcon) coated with 0.1% gelatin. The lower compartment was filled with […] EBM-2 medium containing various agents. The plates were incubated at 37° C. to allow migration. After 4 hrs, cells were fixed with 4% PFA for 20 min and then stained with crystal violet (Sigma-Aldrich) for 20 min at RT. Migrated cells on the bottom side of the insert membrane were quantified by counting whole area of the insert at 40× magnification. The experiments were carried out in triplicate and repeated three times. BCEC migration was set up similarly, except that wells were coated with FN, cells were suspended in 1% serum media and migration time was 18-24 hrs.

[1] = mouse, in vivo, po
Method: Following oral administration, there was a relatively rapid decline in ManN plasma levels. Plasma free ManN levels reached a peak level of −100 nmol/ml plasma at 1 hr. […] 2 hours after oral feeding of 20% ManN, muscle samples were taken from the ischemic legs. A significant amount of ManN reached the ischemic legs, with 0.17+1−0.18 nmol/mg protein of free ManN and 0.91+1−0.24 nmol/mg protein of ManN-6p.
To test ManN stability in wound fluid collected from mice with skin infection as described below, 1.5 μl of 5% ManN solution was added to each 200 μl wound fluid which was first diluted 1:1 (v/v) with PBS. At each time point, samples were taken from 37° C. incubator and stored at −80° C. Plasma proteins were precipitated by adding ice cold acetonitrile to plasma: acetonitrile 1:3 (v/v) ratio. Samples were kept over ice for 1 hr and then centrifuged at 12000 g for 10 min at 7° C. to form a pellet. Supernatants were transferred to other tubed, dried down on a Speed Vac and then reconstituted in UltraPure distilled water and filtered through pre-washed Nanosep 3K Omega filters (Pall Corporation). The filtrate was dried down on Speed Vac. The dry samples were dissolved in 100 μl of water and 2 μl plasma or wound fluid sample was subjected to HPLC analysis. Neutral and amino sugars were separated on a Dionex CarboPac PAI column 4 mm×250 mm with 4 mm×50 mm guard column. An isocratic gradient of 19 mM sodium hydroxide with 0.95 mM sodium acetate was used at a flow rate of 1 ml/min with 20 min run. Data was collected using the Dionex ICS-3000 HPLC system with pulsed amperometric detector using standard Quad waveform. ManN was identified and quantified by comparison with monosaccharide standard using Thermo Scientific Chromeleon software. No ManN samples served as negative controls.

VEGFR2 on cell surface = experiment: Biotinylation of surface proteins in BCECs; assay type: cell-based, bovine; settings: ManN-treated BCECs
Method: BCECs were plated in 10 cm cell culture dishes 3 days prior to the cell surface protein isolation. Cells were washed three times with Dulbecco's PBS with CaCl2 and MgCl2, followed by a 30 min incubation with EZ-Link Sulfo-NHS-SS-Biotin (Pierce, Rockford, IL, USA; 0.5 mg/ml in Dulbecco) on ice. Cells were washed twice with Dulbecco and the non-reacted biotin was blocked with 20 mM glycine for 15 mins. To prevent the reduction of the disulfide bridge in the biotin molecule during the cell lysis process, a 100 μM oxidized glutathione (Sigma-Aldrich, St. Louis, MO) was added in the last wash solution. For cell lysis 500 μL of lysis buffer (2% NP-40, 1% Triton X-100, 10% glycerol, 100 μM oxidized glutathione, EDTA free protease inhibitor tablet (Roche, Mannheim, Germany) in PBS was added to the cells. Lysed cell extracts were scraped off the plates and transferred to an Eppendorf tube followed by incubation on ice on a shaker for 30 mins. The cell extracts were incubated with 30 U of DNase (22° C. 50 mins, Roche, Mannheim, Germany) and centrifuged for 20 mins (20,800×g, at 4° C.) to pellet the insoluble material. The protein concentration of the supernatants was determined. Equal amounts of protein (−2 mg) from each extract were used for cell surface protein isolation. […]

brain infarction = experiment: Middle cerebral artery occlusion (MCAO) stroke model; assay type: in vivo, mouse
O-glycan of BCEC lysates = experiment: O-glycan analysis in BCEC lysates (MALDI-Tof); assay type: cell-based, bovine; settings: 40 μM ManN
Method: For O-glycan analysis, homogenized cell samples were treated with 50 mM NaOH in presence of 1M NaBH4 for 16 hrs at 45° C. The reaction mixture was neutralized using ice-cold 30% acetic acid slowly. The neutralized reaction mixture was then passed over Dowex 50-X cation exchange resin to remove sodium ion and lyophilized. Excess boric acid generated during neutralization was then removed by co-evaporation using acidified methanol and methanol respectively. Finally the O-glycan was purified by passing over C18 cartridge. Dried and purified O-glycan was then methylated and used for O-glycan analysis after permethylation. Permethylated samples were then dissolved in absolute methanol and mixed with SDHB (Super-DHB) MALDI matrix in 1:1 v/v ratio and spotted on maldi plate. Mass spectral data was acquired using Bruker AutoFlex mass spectrometer at positive, reflectron mode. The mass spectral data were analyzed and annotated using GlycoWork Bench software and masses matched with the proposed structures were annotated. The mono-isotopic ion intensities are taken for calculation.

4T1 cells = experiment: 4T1 proliferation assay (MTS); assay type: cell-based

N[C@H](C=O)[C@@H](O)[C@H](O)[C@H](O)CO [ManN, 2-Amino-2-deoxy-D-mannose]
HUVEC migration (HUVEC): stimulation of migration and wound closure
plasma ManN after 3 hours relative to peak [1]: about half of that amount
plasma free ManN peak level [1]: ~100 nmol/ml plasma
time of plasma peak level [1]: 1 h
ManN-6p in ischemic leg muscle ([1]; 2 h): 0.91+1−0.24 nmol/mg protein
free ManN in ischemic leg muscle ([1]; 2 h): 0.17+1−0.18 nmol/mg protein
amount of VEGFR2 on cell surface (VEGFR2 on cell surface): no changes
histopathological alterations (H&E), Day 4 (brain infarction; 40 mg ManN Day -1, 1, 3): ameliorates histopathological alterations
vascular density (CD31) in cerebral cortex affected by infarct, Day 6 (brain infarction; 40 mg ManN Day -1, 1, 3, 5, p<0.001): significantly increased vascular density
infarction area, Day 4 MRI, first and second experiment (brain infarction; 40 mg ManN oral gavage Day -1 and every 48 hours, 4 animals per group): markedly smaller infarction area
overall infarction area, combined analysis (brain infarction; 4 days post-acute ischemic event, FIG. 12D): statistically significant effect of ManN treatment in reducing overall infarction area
TTC staining of coronal slices at Day 4 (brain infarction; FIG. 13C): lack of large regions of white staining
CNS infarct volume at Day 4 (MRI), additional animals (brain infarction; p<0.001 vs vehicle, FIG. 13B): significantly reduced CNS infarct volume
infarct area on Day 2 and Day 4 (MRI images) (brain infarction; vs vehicle (H2O), FIG. 13A): Reduction in infarct area is noticeable
O-glycosylation (O-glycan of BCEC lysates): overall decrease in O-glycosylation
toxicity on 4T1 cells (4T1 cells; 5 mM): significant toxicity
growth of 4T1 (4T1 cells; ManN, MTS): did not promote growth
